Assay results taken from patent US11820756B2, “Bradykinin B2 receptor antagonists” (Pharvaris Netherlands B.V., priority 2017, dated 2023).
pIC50: −log10 of the molar value.

biological target: T1, human bradykinin B2 receptor (hB2R) (Homo sapiens, UniProt P30411); test: cell-based human bradykinin B2 receptor calcium mobilization (hB2R-CaM) assay; details: HTS041C cells, bradykinin at EC80, calcium mobilization; read-out: IC50-value towards human bradykinin B2 receptor (hB2R)
T1 sequence (P30411 1-391): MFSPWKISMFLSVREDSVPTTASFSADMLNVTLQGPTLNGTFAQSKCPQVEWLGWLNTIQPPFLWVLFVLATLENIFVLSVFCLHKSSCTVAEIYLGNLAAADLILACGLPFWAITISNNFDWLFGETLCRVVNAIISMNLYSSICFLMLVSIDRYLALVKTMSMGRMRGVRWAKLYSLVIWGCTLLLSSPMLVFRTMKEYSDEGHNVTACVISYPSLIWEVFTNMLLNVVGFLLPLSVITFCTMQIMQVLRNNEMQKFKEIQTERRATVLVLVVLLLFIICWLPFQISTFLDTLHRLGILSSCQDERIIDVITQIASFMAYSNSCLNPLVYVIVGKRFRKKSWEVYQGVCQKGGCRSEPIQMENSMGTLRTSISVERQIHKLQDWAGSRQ
Source text: The following cell-based human bradykinin B2 receptor calcium mobilization (hB2R-CaM) assay was used to determine the antagonistic activity of compounds selected from the example compounds Nos. 1 to 168 towards human bradykinin B2 receptor (hB2R). The assay is defined herein as a standard in vitro B2 receptor activity assay, which can be used to determine IC50 values of the compounds according to the present invention, e. g. the compounds shown in Examples 1-11.
The antagonistic activity of compounds according to the present invention was investigated with the hB2R-CaM assay using the B2 Bradykinin Receptor Stable Cell Line HTS041C (Eurofins, St. Charles MO) and the FLIPR Calcium 6 Assay Kit (Molecular Devices, Wokingham, UK) according to the instructions of the providers. CaM assay measurements were performed with a Flexstation 3 System (Molecular Devices) which allows the precise addition of compounds (B2R antagonists) and bradykinin (B2R agonist) to the cells and adjacent continuous recording of the time-dependent CaM assay signals.
HTS041C cells were cultured in high glucose DMEM cell culture medium (Lonza) supplemented with 10% heat-inactivated FBS (PAN Biotech), 10 mM HEPES, Penicillin/Streptomycin (200 U/mL, 200 μg/mL), 1× non-essential amino acids (Lonza), and 250 μg/mL G418 (Invivogen) in cell incubator at 37° C. in a 5% CO2 atmosphere.
One day before the CaM assay experiments cells were seeded in 200 μL DMEM cell culture medium with reduced FBS (5%) and without G418 on clear bottom black 96 well plates (ThermoFisher #165305). Cell starvation was carried out by incubation (37° C., 5% CO2) of 70.000 cells/well for 24 h to 28 h. Immediately prior calcium dye-loading the medium was carefully aspirated and cells were washed with Hank's balanced salt solution (HBSS, Gibco) containing Ca^2+, Mg^2+ and 20 mM HEPES, adjusted to pH 7.4 (HBSS+). Calcium Dye Loading of the Cells:
For calcium dye-loading one FLIPR 6 assay aliquot was dissolved in 20 mL HBSS+. 150 μL of the dye loading solution was added to cell plate and incubated for 120 min at 37° C. and 5% CO2. After dye loading the cell plate was immediately transferred to the pre-warmed (37° C.) Flexstation 3 System for CaM assaying.
Freshly prepared compound (B2 receptor antagonists) dilution series (8 pt, n=2) and bradykinin (B2 receptor agonist) solution in non-binding plates (Costar) were transferred to the Flexstation System (source plate) shortly before starting the experiment. Bradykinin was added in EC80 concentration determined in n>3 preliminary experiments with 8 pt concentration response curves (n=8)). CaM assay was executed by Flexstation 3 System starting with recording of calcium-sensitive dye fluorescence in bottom-read Flex modus with ex/em=485 nm/525 nm, cut off(em)=[…]. After 20 s, 50 μL of 4-fold concentrated compound dilutions were added to the cells resulting in a final DMSO (Sigma) concentration of 0.1% in the cell plate. CaM signals were monitored for 80 s after additions for detection of potential agonistic activities. Prior to bradykinin stimulus compound- and vehicle-treated cells were incubated for 25 min at 37° C. within the Flexstation System. Then 50 μL of a 5-fold concentrated bradykinin solution (HBSS+, 0.1% DMSO) was added to trigger CaM signals (Read out: Max-Min values) which were measured for 80 s post bradykinin stimulus.
IC50 determinations were performed by 4 parameter logistic model curve fitting of the 8 pt (n=2) compound concentration response curves using XLFIT (IDBS) software.
Relative IC50 values of the test compounds were determined with the same hB2R-CaM assay as in Example 12.

Row | SMILES | pIC50
1 | Cc1cc(-n2cc(F)cn2)c2cccc(OCc3c(Cl)cc(F)cc3[C@H](C)N(C)C(=O)[C@H](C)O)c2n1 [Compound 2, (S)—N—((S)-1-(3-chloro-5-fluoro-2-((4-(4-fluoro-1H-pyrazol-1-yl)-2-methylquinolin-8-yloxy)methyl)phenyl)ethyl)-2-hydroxy-N-methylpropanamide] | ≥ 7.30
2 | Cc1cc(-n2cc(F)cn2)c2cccc(OCc3c(Cl)cc(F)cc3[C@H](C)NC(=O)[C@H](O)CN)c2n1 [Compound 3, (R)-3-amino-N—((S)-1-(3-chloro-5-fluoro-2-((4-(4-fluoro-1H-pyrazol-1-yl)-2-methylquinolin-8-yloxy)methyl)phenyl)ethyl)-2-hydroxypropanamide] | 6.00 to 6.60
3 | Cc1cc(-n2ncc(F)c2C)c2cccc(OCc3c(Cl)cc(F)cc3[C@H](C)NC(=O)[C@@H](C)O)c2n1 [Compound 8, (R)—N—((S)-1-(3-chloro-5-fluoro-2-((4-(4-fluoro-5-methyl-1H-pyrazol-1-yl)-2-methylquinolin-8-yloxy)methyl)phenyl)ethyl)-2-hydroxypropanamide] | 6.60 to 7.29
4 | Cc1cc(-n2ncnc2C)c2cccc(OCc3c(Cl)cc(F)cc3[C@H](C)NC(=O)COC(F)F)c2n1 [Compound 9, (S)—N-(1-(3-chloro-5-fluoro-2-((2-methyl-4-(5-methyl-1H-1,2,4-triazol-1-yl)quinolin-8-yloxy)methyl)phenyl)ethyl)-2-(difluoromethoxy)acetamide] | ≥ 7.30
5 | Cc1cc(-n2cnc(C)n2)c2cccc(OCc3c(Cl)cc(F)cc3[C@H](C)NC(=O)COC(F)F)c2n1 [Compound 10, (S)—N-(1-(3-chloro-5-fluoro-2-((2-methyl-4-(3-methyl-1H-1,2,4-triazol-1-yl)quinolin-8-yloxy)methyl)phenyl)ethyl)-2-(difluoromethoxy)acetamide] | 6.60 to 7.29
6 | [2H]C([2H])([2H])[C@]([2H])(NC(=O)COC(F)F)c1cc(F)cc(Cl)c1COc1cccc2c(-c3ncnn3C)cc(C)nc12 [Compound 11A, N-[(1S)-1-[3-chloro-5-fluoro-2-({[2-methyl-4-(1-methyl-1H-1,2,4-triazol-5-yl)quinolin-8-yl]oxy}methyl)phenyl](1,2,2,2-^2H4)ethyl]-2-(difluoromethoxy)acetamide] | ≥ 7.30
7 | [2H][C@@](CO)(NC(=O)COC(F)F)c1cc(F)cc(Cl)c1COc1cccc2c(-c3ncnn3C)cc(C)nc12 [Compound 11B, (R)—N-(1-Deutero-1-(3-chloro-5-fluoro-2-((2-methyl-4-(1-methyl-1H-1,2,4-triazol-5-yl)quinolin-8-yloxy)methyl)phenyl)-2-hydroxyethyl)-2-(difluoromethoxy)acetamide] | ≥ 7.30
8 | [2H][C@@](C)(NC(=O)[C@@H](C)F)c1cc(F)cc(Cl)c1COc1cccc2c(-n3ncnc3C)cc(C)nc12 [Compound 11C, (R)—N—((S)-1-deutero-1-(3-chloro-5-fluoro-2-((2-methyl-4-(5-methyl-1H-1,2,4-triazol-1-yl)quinolin-8-yloxy)methyl)phenyl)ethyl)-2-fluoropropanamide] | ≥ 7.30
9 | COCC(=O)N[C@@H](C)c1cc(F)cc(Cl)c1COc1cccc2c(-n3cc(F)cn3)cc(C)nc12 [Compound 12] | ≥ 7.30
10 | Cc1cc(-n2cc(F)cn2)c2cccc(OCc3c(Cl)cc(F)cc3[C@H](C)NC(=O)[C@@H]3CCCO3)c2n1 [Compound 14] | ≥ 7.30
11 | Cc1cc(-n2cc(F)cn2)c2cccc(OCc3c(Cl)cc(F)cc3[C@H](C)NC(=O)[C@H]3CCOC3)c2n1 [Compound 15] | ≥ 7.30
12 | CO[C@@H](C)C(=O)N[C@@H](C)c1cc(F)cc(Cl)c1COc1cccc2c(-n3cc(F)cn3)cc(C)nc12 [Compound 16] | ≥ 7.30
13 | CO[C@H](C)C(=O)N[C@@H](C)c1cc(F)cc(Cl)c1COc1cccc2c(-n3cc(F)cn3)cc(C)nc12 [Compound 17] | ≥ 7.30
14 | CCOCC(=O)N[C@@H](C)c1cc(F)cc(Cl)c1COc1cccc2c(-n3cc(F)cn3)cc(C)nc12 [Compound 18] | ≥ 7.30
15 | Cc1cc(-n2cc(F)cn2)c2cccc(OCc3c(Cl)cc(F)cc3[C@H](C)NC(=O)[C@@H]3CCOC3)c2n1 [Compound 19] | ≥ 7.30
16 | Cc1cc(-n2cc(F)cn2)c2cccc(OCc3c(Cl)cc(F)cc3[C@H](C)NC(=O)[C@H]3CCCO3)c2n1 [Compound 20] | ≥ 7.30
17 | Cc1cc(-n2cc(F)cn2)c2cccc(OCc3c(Cl)cc(F)cc3[C@H](C)NC(=O)[C@@H](O)CN)c2n1 [Compound 21] | 6.00 to 6.60
18 | Cc1cc(-n2cc(F)cn2)c2cccc(OCc3c(Cl)cc(F)cc3[C@H](C)NC(=O)[C@@H](O)C(C)C)c2n1 [Compound 22] | 6.60 to 7.29

Row | SMILES | pIC50
19 | Cc1cc(-n2cc(F)cn2)c2cccc(OCc3c(Cl)cc(F)cc3[C@H](C)NC(=O)C(C)(C)O)c2n1 [Compound 23] | 6.60 to 7.29
20 | CC[C@@H](O)C(=O)N[C@@H](C)c1cc(F)cc(Cl)c1COc1cccc2c(-n3cc(F)cn3)cc(C)nc12 [Compound 24] | 6.60 to 7.29
21 | CC[C@H](O)C(=O)N[C@@H](C)c1cc(F)cc(Cl)c1COc1cccc2c(-n3cc(F)cn3)cc(C)nc12 [Compound 25] | 6.60 to 7.29
22 | Cc1cc(-n2cc(F)cn2)c2cccc(OCc3c(Cl)cc(F)cc3[C@H](C)NC(=O)C[C@@H](C)O)c2n1 [Compound 26] | ≥ 7.30
23 | Cc1cc(-n2cc(F)cn2)c2cccc(OCc3c(Cl)cc(F)cc3[C@H](C)NC(=O)C[C@H](C)O)c2n1 [Compound 27] | ≥ 7.30
24 | Cc1cc(-n2nccn2)c2cccc(OCc3c(Cl)cc(F)cc3[C@H](C)NC(=O)C(C)(C)O)c2n1 [Compound 28] | 6.60 to 7.29
25 | CO[C@@H](C)C(=O)N[C@@H](C)c1cc(F)cc(Cl)c1COc1cccc2c(-n3nccn3)cc(C)nc12 [Compound 29] | ≥ 7.30
26 | Cc1cc(-n2nccn2)c2cccc(OCc3c(Cl)cc(F)cc3[C@H](C)NC(=O)[C@H]3CCOC3)c2n1 [Compound 30] | ≥ 7.30
27 | Cc1cc(-n2nccn2)c2cccc(OCc3c(Cl)cc(F)cc3[C@H](C)NC(=O)[C@@H](C)O)c2n1 [Compound 31] | 6.60 to 7.29
28 | Cc1cc(-n2nccn2)c2cccc(OCc3c(Cl)cc(F)cc3[C@H](C)NC(=O)[C@H](C)O)c2n1 [Compound 32] | 6.60 to 7.29
29 | CC[C@H](O)C(=O)N[C@@H](C)c1cc(F)cc(Cl)c1COc1cccc2c(-n3nccn3)cc(C)nc12 [Compound 33] | 6.60 to 7.29
30 | CC[C@@H](O)C(=O)N[C@@H](C)c1cc(F)cc(Cl)c1COc1cccc2c(-n3nccn3)cc(C)nc12 [Compound 34] | 6.60 to 7.29
31 | Cc1cc(-n2cc(F)cn2)c2cccc(OCc3c(Cl)cc(F)cc3[C@H](C)NC(=O)[C@@H](O)CC(C)C)c2n1 [Compound 46] | 6.60 to 7.29
32 | Cc1cc(-n2cc(F)cn2)c2cccc(OCc3c(Cl)cc(F)cc3[C@H](C)NC(=O)[C@H](O)CC(C)C)c2n1 [Compound 47] | 6.00 to 6.60
33 | Cc1cc(-n2cc(F)cn2)c2cccc(OCc3c(Cl)cc(F)cc3[C@H](C)NC(=O)C(C)(C)C(F)(F)F)c2n1 [Compound 48] | 6.60 to 7.29
34 | Cc1cc(-n2cc(F)cn2)c2cccc(OCc3c(Cl)cc(F)cc3[C@H](C)NC(=O)CO)c2n1 [Compound 49] | 6.60 to 7.29
35 | CCC[C@H](O)C(=O)N[C@@H](C)c1cc(F)cc(Cl)c1COc1cccc2c(-n3cc(F)cn3)cc(C)nc12 [Compound 50] | 6.60 to 7.29
